This is an account of results in paper PMC5218480 (PLoS ONE, 2017).

The test system of the assay is MV-4-11 cells. In words: Gene expression microarray analysis (Affymetrix PrimeView) and GSEA. Format: cell-based, human. The arrangement: RFU PODN (11730768_x_at) / Fold change /veh PODN (11730768_x_at) / RFU LINC00158 (11744669_a_at) / Fold change /veh LINC00158 (11744669_a_at) / RFU DUSP10 (11751237_a_at) / Fold change /veh DUSP10 (11751237_a_at) / RFU ID3 (11757404_x_at) / Fold change /veh ID3 (11757404_x_at) / RFU PLEKHG5 (11737974_s_at) / Fold change /veh PLEKHG5 (11737974_s_at) / RFU LRRC4B (11730491_at) / Fold change /veh LRRC4B (11730491_at) / RFU GIMAP4 (11747438_a_at) / Fold change /veh GIMAP4 (11747438_a_at) / RFU KRT8 (11758183_x_at) / Fold change /veh KRT8 (11758183_x_at) / RFU CNN1 (11734310_a_at) / Fold change /veh CNN1 (11734310_a_at) / RFU VPS37D (11726825_at) / Fold change /veh VPS37D (11726825_at) / RFU C10orf10 (11716522_x_at) / Fold change /veh C10orf10 (11716522_x_at) / RFU KIR2DL2 /// KIR2DL4 /// KIR2DL5A /// KIR2DL5B /// KIR2DS1 /// KIR2DS2 /// KIR2DS3 /// KIR2DS4 /// KIR3DL3 /// KIR3DL3 /// KIR3DS1 (11738374_at) / Fold change /veh KIR2DL2 /// KIR2DL4 /// KIR2DL5A /// KIR2DL5B /// KIR2DS1 /// KIR2DS2 /// KIR2DS3 /// KIR2DS4 /// KIR3DL3 /// KIR3DL3 /// KIR3DS1 (11738374_at) / RFU C1QL1 (11718748_at) / Fold change /veh C1QL1 (11718748_at) / RFU TMPRSS4 (11747572_a_at) / Fold change /veh TMPRSS4 (11747572_a_at) / RFU HAMP (11756126_x_at) / Fold change /veh HAMP (11756126_x_at) / RFU RNFT2 (11725882_a_at) / Fold change /veh RNFT2 (11725882_a_at) / RFU NR4A2 (11747474_a_at) / Fold change /veh NR4A2 (11747474_a_at) / RFU ABCC12 (11746883_a_at) / Fold change /veh ABCC12 (11746883_a_at) / RFU TMEM136 (11760407_x_at) / Fold change /veh TMEM136 (11760407_x_at) / RFU CLDN22 /// WWC2 (11732394_at) / Fold change /veh CLDN22 /// WWC2 (11732394_at) / RFU HLA-DPB1 (11760878_x_at) / Fold change /veh HLA-DPB1 (11760878_x_at) / RFU SPINT1 (11716480_a_at) / Fold change /veh SPINT1 (11716480_a_at) / RFU GAP43 (11754022_s_at) / Fold change /veh GAP43 (11754022_s_at) / RFU A4GNT (11735810_at) / Fold change /veh A4GNT (11735810_at) / RFU PRB3 (11715151_x_at) / Fold change /veh PRB3 (11715151_x_at) / RFU TUBB4B (11761932_at) / Fold change /veh TUBB4B (11761932_at) / RFU CAPN14 (11732068_a_at) / Fold change /veh CAPN14 (11732068_a_at) / RFU TMCC2 (11721928_a_at) / Fold change /veh TMCC2 (11721928_a_at) / RFU IRGQ (11745062_a_at) / Fold change /veh IRGQ (11745062_a_at) / RFU FAM174B (11720279_a_at) / Fold change /veh FAM174B (11720279_a_at) / RFU TMPRSS4 (11748680_a_at) / Fold change /veh TMPRSS4 (11748680_a_at) / RFU FAM212B (11763350_a_at) / Fold change /veh FAM212B (11763350_a_at) / RFU PLEKHG5 (11743358_a_at) / Fold change /veh PLEKHG5 (11743358_a_at) / RFU ZSCAN30 (11745921_a_at) / Fold change /veh ZSCAN30 (11745921_a_at) / RFU CMKLR1 (11741424_a_at) / Fold change /veh CMKLR1 (11741424_a_at) / RFU LOC101060620 /// MAPK8IP1 (11723275_at) / Fold change /veh LOC101060620 /// MAPK8IP1 (11723275_at) / RFU SPTSSB (11747773_x_at) / Fold change /veh SPTSSB (11747773_x_at) / RFU PRSS12 (11739890_at) / Fold change /veh PRSS12 (11739890_at) / RFU BIN1 (11741810_x_at) / Fold change /veh BIN1 (11741810_x_at) / RFU WNT11 (11732464_a_at) / Fold change /veh WNT11 (11732464_a_at) / RFU C10orf10 (11716521_a_at) / Fold change /veh C10orf10 (11716521_a_at) / RFU C5orf56 (11738089_at) / Fold change /veh C5orf56 (11738089_at) / RFU CYB561 (11721691_x_at) / Fold change /veh CYB561 (11721691_x_at) / RFU ANKRD19P (11752326_a_at) / Fold change /veh ANKRD19P (11752326_a_at) / RFU OR2T12 /// OR2T33 /// OR2T8 (11738714_s_at) / Fold change /veh OR2T12 /// OR2T33 /// OR2T8 (11738714_s_at) / RFU VCAN (11748164_a_at) / Fold change /veh VCAN (11748164_a_at) / RFU JSRP1 (11732532_at) / Fold change /veh JSRP1 (11732532_at) / RFU KRTAP10-11 (11738290_x_at) / Fold change /veh KRTAP10-11 (11738290_x_at) / RFU MYO3A (11730013_a_at) / Fold change /veh MYO3A (11730013_a_at) / RFU EBF3 (11725865_a_at) / Fold change /veh EBF3 (11725865_a_at) / RFU CAMK2N1 (11719241_x_at) / Fold change /veh CAMK2N1 (11719241_x_at) / RFU C5orf56 (11738088_a_at) / Fold change /veh C5orf56 (11738088_a_at) / RFU OLFML3 (11715873_a_at) / Fold change /veh OLFML3 (11715873_a_at) / RFU LOC100653217 /// NTM (11731650_a_at) / Fold change /veh LOC100653217 /// NTM (11731650_a_at) / RFU MAPK11 (11762145_a_at) / Fold change /veh MAPK11 (11762145_a_at) / RFU FIZ1 (11724087_x_at) / Fold change /veh FIZ1 (11724087_x_at) / RFU OASL (11726364_x_at) / Fold change /veh OASL (11726364_x_at) / RFU SOX15 (11748057_x_at) / Fold change /veh SOX15 (11748057_x_at) / RFU CD79A (11719716_a_at) / Fold change /veh CD79A (11719716_a_at) / RFU HIST1H1D (11736915_at) / Fold change /veh HIST1H1D (11736915_at) / RFU CASKIN2 (11723855_a_at) / Fold change /veh CASKIN2 (11723855_a_at) / RFU LOC730098 (11760151_x_at) / Fold change /veh LOC730098 (11760151_x_at) / RFU OR4N2 (11742367_at) / Fold change /veh OR4N2 (11742367_at) / RFU PRRT2 (11749266_a_at) / Fold change /veh PRRT2 (11749266_a_at) / RFU SNX32 (11753110_a_at) / Fold change /veh SNX32 (11753110_a_at) / RFU CDHR5 (11726645_a_at) / Fold change /veh CDHR5 (11726645_a_at) / RFU RCAN1 (11760418_a_at) / Fold change /veh RCAN1 (11760418_a_at) / RFU FAM167A (11723789_a_at) / Fold change /veh FAM167A (11723789_a_at) / RFU FAM26E (11764081_at) / Fold change /veh FAM26E (11764081_at) / RFU ISYNA1 (11749810_s_at) / Fold change /veh ISYNA1 (11749810_s_at) / RFU ACY1 (11761880_at) / Fold change /veh ACY1 (11761880_at) / RFU 11764098_at / Fold change /veh 11764098_at / RFU SAMD14 (11745864_x_at) / Fold change /veh SAMD14 (11745864_x_at) / RFU NPB (11741838_a_at) / Fold change /veh NPB (11741838_a_at) / RFU TMPRSS6 (11731388_a_at) / Fold change /veh TMPRSS6 (11731388_a_at) / RFU KRTAP10-2 (11738614_at) / Fold change /veh KRTAP10-2 (11738614_at) / RFU ARHGAP8 /// PRR5-ARHGAP8 (11727945_x_at) / Fold change /veh ARHGAP8 /// PRR5-ARHGAP8 (11727945_x_at) / RFU KRTAP5-7 /// NADSYN1 (11734609_at) / Fold change /veh KRTAP5-7 /// NADSYN1 (11734609_at) / RFU RASL12 (11751679_a_at) / Fold change /veh RASL12 (11751679_a_at) / RFU CDKN2B (11736163_a_at) / Fold change /veh CDKN2B (11736163_a_at) / RFU PRF1 (11729649_at) / Fold change /veh PRF1 (11729649_at) / RFU, ZNF638 /// ZNF638-IT1 / Fold change vs veh, ZNF638 /// ZNF638-IT1 / RFU, PANK3 / Fold change vs veh, PANK3 / RFU, SH3YL1 / Fold change vs veh, SH3YL1 / RFU, ZEB2 / Fold change vs veh, ZEB2 / RFU, NRIP1 / Fold change vs veh, NRIP1 / RFU, PTTG1IP / Fold change vs veh, PTTG1IP / RFU, CAPN2 / Fold change vs veh, CAPN2 / RFU, MED14 / Fold change vs veh, MED14 / RFU, SNORA58 / Fold change vs veh, SNORA58 / RFU, C1orf63 / Fold change vs veh, C1orf63 / RFU, LRRFIP1 / Fold change vs veh, LRRFIP1 / RFU, NDUFAF7 / Fold change vs veh, NDUFAF7 / RFU, SLC12A2 / Fold change vs veh, SLC12A2 / RFU, IBTK / Fold change vs veh, IBTK / RFU, ESF1 / Fold change vs veh, ESF1 / Fold change vs veh, TMEM50B / RFU, TAOK1 / Fold change vs veh, TAOK1 / RFU, ACBD3 / Fold change vs veh, ACBD3 / RFU, TMA16 / Fold change vs veh, TMA16 / RFU, RWDD3 / Fold change vs veh, RWDD3 / RFU, BCAT1 / Fold change vs veh, BCAT1 / RFU, EDEM3 / Fold change vs veh, EDEM3 / RFU, TMEM33 / Fold change vs veh, TMEM33 / RFU, WDR75 / Fold change vs veh, WDR75 / RFU, AHCTF1 / Fold change vs veh, AHCTF1 / RFU, TFRC / Fold change vs veh, TFRC / RFU, ZDHHC17 / Fold change vs veh, ZDHHC17 / RFU, NOM1 / Fold change vs veh, NOM1 / RFU, ARL8B / Fold change vs veh, ARL8B / RFU, ZBTB11 / Fold change vs veh, ZBTB11 / RFU, TAMM41 / Fold change vs veh, TAMM41 / RFU, KIAA1704 /// LOC100996395 / Fold change vs veh, KIAA1704 /// LOC100996395 / RFU, ING1 / Fold change vs veh, ING1 / RFU, TRMT61B / Fold change vs veh, TRMT61B / RFU, FUBP3 / Fold change vs veh, FUBP3 / RFU, TP53 / Fold change vs veh, TP53 / RFU, TNKS2 / Fold change vs veh, TNKS2 / RFU, ZFP14 / Fold change vs veh, ZFP14 / RFU, ACTR2 / Fold change vs veh, ACTR2 / RFU, PPP3R1 / Fold change vs veh, PPP3R1 / RFU, PIK3R1 / Fold change vs veh, PIK3R1 / RFU, HNRNPA1 / Fold change vs veh, HNRNPA1 / RFU, RNF170 / Fold change vs veh, RNF170 / RFU, ZNF28 / Fold change vs veh, ZNF28 / RFU, RNGTT / Fold change vs veh, RNGTT / RFU, OGT / Fold change vs veh, OGT / RFU, BRD1 / Fold change vs veh, BRD1 / RFU, MARS / Fold change vs veh, MARS / RFU, ZNF655 / Fold change vs veh, ZNF655 / RFU, FAHD1 / Fold change vs veh, FAHD1 / RFU, BDP1 / Fold change vs veh, BDP1 / RFU, LRRCC1 / Fold change vs veh, LRRCC1 / RFU, ARID1A / Fold change vs veh, ARID1A / RFU, ZNF146 / Fold change vs veh, ZNF146 / RFU, ZNF330 / Fold change vs veh, ZNF330 / RFU, GPN3 / Fold change vs veh, GPN3 / RFU, C9orf123 / Fold change vs veh, C9orf123 / RFU, N4BP2L2 / Fold change vs veh, N4BP2L2 / RFU, ARFIP1 / Fold change vs veh, ARFIP1 / RFU, FAM179B / Fold change vs veh, FAM179B / RFU, BCL10 / Fold change vs veh, BCL10 / RFU, UHRF1BP1L / Fold change vs veh, UHRF1BP1L / RFU, BET1 / Fold change vs veh, BET1 / RFU, CNOT2 / Fold change vs veh, CNOT2 / RFU, ZNF268 / Fold change vs veh, ZNF268 / Fold change vs veh, ZNF507 / RFU, DGCR2 / Fold change vs veh, DGCR2 / RFU, WDSUB1 / Fold change vs veh, WDSUB1 / Fold change vs veh, HSP90B1 /// MIR3652 / RFU, ADSS / Fold change vs veh, ADSS / RFU, GK / Fold change vs veh, GK / RFU, ZNF148 / Fold change vs veh, ZNF148 / RFU, TAF9 / Fold change vs veh, TAF9 / RFU, SLC1A5 / Fold change vs veh, SLC1A5 / RFU, SLMO2 / Fold change vs veh, SLMO2 / RFU, ABCC4 / Fold change vs veh, ABCC4 / RFU, LOC101060439 /// RAP1B / Fold change vs veh, LOC101060439 /// RAP1B / RFU, RFX7 / Fold change vs veh, RFX7 / RFU, GTPBP10 / Fold change vs veh, GTPBP10 / RFU, CNEP1R1 / Fold change vs veh, CNEP1R1 / RFU, BIVM-ERCC5 /// ERCC5 / Fold change vs veh, BIVM-ERCC5 /// ERCC5 / RFU, ILF3 / Fold change vs veh, ILF3 / RFU 11762660_at / Fold change /veh 11762660_at / RFU VCAN (11757783_s_at) / Fold change /veh VCAN (11757783_s_at) / RFU DDX43 (11728927_at) / Fold change /veh DDX43 (11728927_at) / RFU KRT8 (11758188_x_at) / Fold change /veh KRT8 (11758188_x_at) / RFU NKD1 (11759106_at) / Fold change /veh NKD1 (11759106_at) / RFU SRD5A1 (11742802_a_at) / Fold change /veh SRD5A1 (11742802_a_at) / RFU TPSAB1 /// TPSB2 (11721975_s_at) / Fold change /veh TPSAB1 /// TPSB2 (11721975_s_at) / RFU GSTM3 (11746129_a_at) / Fold change /veh GSTM3 (11746129_a_at) / RFU IL23R (11737362_x_at) / Fold change /veh IL23R (11737362_x_at) / RFU TMEM51 (11727254_a_at) / Fold change /veh TMEM51 (11727254_a_at) / RFU PIWIL2 (11732686_x_at) / Fold change /veh PIWIL2 (11732686_x_at) / RFU ORM1 (11744905_x_at) / Fold change /veh ORM1 (11744905_x_at) / RFU CCDC152 (11743942_at) / Fold change /veh CCDC152 (11743942_at) / RFU ECM1 (11717891_a_at) / Fold change /veh ECM1 (11717891_a_at) / RFU IL23R (11748794_a_at) / Fold change /veh IL23R (11748794_a_at) / RFU TNFAIP8L3 (11732012_x_at) / Fold change /veh TNFAIP8L3 (11732012_x_at) / RFU MBOAT4 (11741988_at) / Fold change /veh MBOAT4 (11741988_at) / RFU 11764193_at / Fold change /veh 11764193_at / RFU TMEM53 (11763286_at) / Fold change /veh TMEM53 (11763286_at) / RFU MAGEB2 (11727129_at) / Fold change /veh MAGEB2 (11727129_at) / RFU TMEM200A (11744735_a_at) / Fold change /veh TMEM200A (11744735_a_at) / RFU CCDC152 (11751479_a_at) / Fold change /veh CCDC152 (11751479_a_at) / RFU FAM211A (11726209_a_at) / Fold change /veh FAM211A (11726209_a_at) / RFU RGS16 (11746705_a_at) / Fold change /veh RGS16 (11746705_a_at) / RFU VCAN (11755009_s_at) / Fold change /veh VCAN (11755009_s_at) / RFU RHOB (11743442_s_at) / Fold change /veh RHOB (11743442_s_at) / RFU RGS16 (11720943_a_at) / Fold change /veh RGS16 (11720943_a_at) / RFU RGS16 (11720944_at) / Fold change /veh RGS16 (11720944_at) / RFU, VPS4B / Fold change vs veh, VPS4B / RFU, CREB1 / Fold change vs veh, CREB1 / RFU, DNAJC13 / Fold change vs veh, DNAJC13 / RFU, GNAQ / Fold change vs veh, GNAQ / RFU, CDK5R1 / Fold change vs veh, CDK5R1 / RFU, ZRANB3 / Fold change vs veh, ZRANB3 / RFU, CUL4A / Fold change vs veh, CUL4A / RFU, CCNY / Fold change vs veh, CCNY / RFU, UFL1 / Fold change vs veh, UFL1 / RFU, COG3 / Fold change vs veh, COG3 / RFU, DIAPH2 / Fold change vs veh, DIAPH2 / RFU, SKA2 / Fold change vs veh, SKA2 / RFU, AFF3 / Fold change vs veh, AFF3 / RFU, LMF1 / Fold change vs veh, LMF1 / RFU, IPO11 / Fold change vs veh, IPO11 / RFU, DFFB / Fold change vs veh, DFFB / RFU, FOXP1 / Fold change vs veh, FOXP1 / RFU, CARD8 / Fold change vs veh, CARD8 / RFU, STRN3 / Fold change vs veh, STRN3 / RFU, ADK / Fold change vs veh, ADK / RFU, RASSF2 / Fold change vs veh, RASSF2 / RFU, WIPF1 / Fold change vs veh, WIPF1 / RFU, LARP1B / Fold change vs veh, LARP1B / RFU, RASA1 / Fold change vs veh, RASA1 / RFU, RB1 / Fold change vs veh, RB1 / RFU, PPFIA1 / Fold change vs veh, PPFIA1 / RFU, MAT2A / Fold change vs veh, MAT2A / RFU, CCT5 / Fold change vs veh, CCT5 / RFU, WDR92 / Fold change vs veh, WDR92 / RFU, CUX1 / Fold change vs veh, CUX1 / RFU, TTC7A / Fold change vs veh, TTC7A / RFU, TMEM135 / Fold change vs veh, TMEM135 / RFU, DEPTOR / Fold change vs veh, DEPTOR / RFU, CPM / Fold change vs veh, CPM / RFU, DNAJB6 / Fold change vs veh, DNAJB6 / RFU, CACNA2D3 / Fold change vs veh, CACNA2D3 / RFU, DTX4 / Fold change vs veh, DTX4 / RFU, TFCP2 / Fold change vs veh, TFCP2 / RFU, GMCL1 /// GMCL1P1 / Fold change vs veh, GMCL1 /// GMCL1P1 / RFU, AEBP2 / Fold change vs veh, AEBP2 / RFU, SNHG1 /// SNORD22 /// SNORD25 /// SNORD26 /// SNORD27 /// SNORD28 /// SNORD29 /// SNORD31 / Fold change vs veh, SNHG1 /// SNORD22 /// SNORD25 /// SNORD26 /// SNORD27 /// SNORD28 /// SNORD29 /// SNORD31 / Fold change (Aza/veh), C12orf56 (ProbeSet 11735607_a_at) / Fold change (ACY-1035/veh), C12orf56 (ProbeSet 11735607_a_at) / Fold change (Aza/veh), FGFR1OP (ProbeSet 11751329_s_at) / Fold change (ACY-1035/veh), FGFR1OP (ProbeSet 11751329_s_at) / Fold change (Aza/veh), VPS36 (ProbeSet 11739960_a_at) / Fold change (ACY-1035/veh), VPS36 (ProbeSet 11739960_a_at) / RFU SYPL1 (11715823_x_at) / Fold change /veh SYPL1 (11715823_x_at) / RFU IGFBP7 (11715501_s_at) / Fold change /veh IGFBP7 (11715501_s_at) / RFU REEP3 (11722064_at) / Fold change /veh REEP3 (11722064_at) / RFU IGLL1 (11728026_x_at) / Fold change /veh IGLL1 (11728026_x_at): dose or concentration left out as unconfirmed. As to conditions: MV-4-11 cells, 48 hours.

Regarding `Nc1ncn([C@@H]2O[C@H](CO)[C@@H](O)[C@H]2O)c(=O)n1` [azacitidine], the “RFU SNX32 (11753110_a_at)” value was determined as 6.16 RFU.
